The text below walks through data of patent US20140024582A1, “STABLE INSULIN FORMULATIONS AND METHODS OF MAKING AND USING THEREOF” (Genecopoeia, Inc., priority 2010, published 2014).

What all share (assay type): physicochemical
A short description of data set [1]: Total degradation products of porcine insulin formulations by C18 reverse-phase HPLC. The method, then: Six test formulations were prepared at proline concentrations of 0, 1.6 M and 2.8 M with acetone concentrations at 0 and 3 mg/ml, as listed in the following table. Those test formulations were stored at room temperature in the dark. At times, aliquots were withdrawn to be analyzed on C18 reverse-phase HPLC to measure total degradation products, as summarized in the table below.

Data set [2] can be described thus: Visual precipitation of insulin solutions stored at room temperature in the dark. The protocol: Insulin was dissolved in 0.10 N hydrochloric acid (5 μL per milligram of insulin) and made into a series of solutions at its concentration of 4.0 mg/ml with various additives, and the pH was adjusted to pH 7.4 using 0.05 N sodium hydroxide. Samples were kept at room temperature (25° C.) in the dark.
Zinc-free recombinant human insulin (16 mg) was dissolved in 0.10 N hydrochloric acid (70 microliters), and to this insulin was added 6.0 ml of the above proline solution. This stock solution was further made into a series of solutions at its concentration of 2.0 mg/ml with various additives at pH 7.4. Samples were kept at room temperature (25° C.) in the dark.
After six months, there were no precipitates visible at the bottom, and the solutions were all visually clear. As shown in Example 1 above, insulin without proline forms precipitates in a few days.
Repeat preparation as in Example 2 at proline concentration of 1.0 M, 1.5 M, 2.4 M and 7.0 M, without glycerol and m-cresol. All samples were stored at room temperature in the dark over six month to find no visible insulin precipitate.

Data set [3] can be described thus: Covalent insulin dimers quantified by SEC HPLC during storage. The note with it: zinc-free insulin and zinc-insulin with EDTA, Example 4. The method, then: A group of stock solutions were prepared: proline (6.25 M) in water, EDTA (0.10 M, pH 7.4), glycerol(320 mg/ml) containing m-Cresol (25 mg/ml) in water, sodium insulin(10 mg/ml) in phosphate buffer (25 mM, pH 7.4). Eight formulations were prepared using those stock solutions as in the table below.
All the eight formulations were kept at room temperature in the dark. At times, aliquots were withdrawn for HPLC analysis (Injection volume: 0.10 ml).
During the storage, covalent insulin dimers were quantified by SEC HPLC, and the results are summarized below.
Column: Protein Pak, 125 Å, Waters, WAT084601
Mobile Phase: 20% Acetonitrile, 15% acetic acid, 65% water
A general note: SEC sorts molecules by how far they enter the pores of the column.

Read-outs that look alike come from different tables or passages of the source.

Regarding `CC(C)=O` [acetone], in data set [1] (porcine insulin, period of 8 weeks, Example 5), the “Effect on total amount of degradation side products” value is listed as “further enhances the stabilizing effect of proline”.
For `N=C(N)NCCC[C@H](N)C(=O)O` [arginine], the “Effect of arginine on precipitation of monomeric insulin” value in data set [2] (arginine at 0.5 M, Example 1) is given as “has ability to deter monomeric insulin from precipitation”.
On to `O=C(O)[C@@H]1CCCN1` [proline], for which, in data set [2] (proline 2.4 M, Example 2), the “Effect of proline on precipitation of monomeric insulin” value is on record as “ability to deter monomeric insulin from precipitation”. Also, the “Effect on formation of high molecular weight insulin degradation side products” value in data set [3] was “reduces formation of high molecular weight insulin degradation side products”. For the same molecule, the “Effect on total amount of degradation side products” value in data set [1] was “reduces total amount of degradation side products”.
